Assay results: US20110218515A1, “Methods for Treating Acute Myocardial Infarctions and Associated Disorders” (The Regents of the University of California, priority 2009, published 2011)
“And” between values parts separate entries of the source, which are not always exact repeats. Identical values can stand only once.

Tests used:
[1] = tested on: ischemia-reperfusion rat model; test: Serial echocardiography in ischemia-reperfusion MI rats; format: in vivo, Sprague-Dawley rats; settings: for LV ejection fraction at 5 weeks: 5 weeks post-MI, after four weeks feed with 1.2% pirfenidone
Description: In this example, a protocol is described for examining the ventricular function, extent of fibrosis and VT inducibility in an ischemia-reperfusion rat model after pirfenidone treatment. Ventricular function was assessed via echocardiography. VT inducibility was assessed by programmed stimulation and EP study. The electrophysiological properties were assessed using high-resolution optical mapping, and the extent of fibrosis was studied using standard histological techniques.
After baseline echocardiography, thirty male Sprague-Dawley rats, ages 6-10 weeks, underwent myocardial infarction using an ischemia-reperfusion model. Briefly, rats were anesthetized using inhaled isoflurane (5% induction, 2.5% maintenance, O2 output 1 L/min) and positioned supine on an electrically warmed animal surgery platform. Rats were intubated using a 16-gauge i.v. catheter and then ventilated using a Harvard rodent respirator. After a left thoracotomy and pericardiotomy were performed, a 7-0 Ticron suture was introduced into the myocardium, using the left atrial appendage and right outflow tract as landmarks. The depth of entry was 2 mm, which was slightly greater than the level of the left coronary artery. Both suture ends were then threaded through a PE-90 polyethylene tube 6 in. in length to form a “snare loop” around the artery, closed by pulling on the free ends of the suture. […] The suture was then tightened to occlude the artery for 20 minutes and then removed to allow for reperfusion. The chest was then closed with 5-0 prolene suture, and the animal was allowed to recover. After one week and repeat echocardiography, rats were randomized to placebo rodent feed (control group, n=15) or rodent feed mixed with 1.2% pirfenidone (PFD) (treatment group, n=15) for four weeks. All experiments and data analyses were performed with the operator blinded to treatment group.
At baseline, and at 1 wk and 5 wk after infarction, a commercially available high-resolution echocardiographic system (Vevo 660, VisualSonics, Toronto, ON, Canada) equipped with a 25-MHz mechanical transducer was used for echocardiography. Rats were placed supine on a warming platform, and ECG limb electrodes were attached. To minimize ultrasound attenuation, the chests were shaved and cleaned with a chemical hair remover (Nair). Aquasonic 100 gel (Parker Laboratories, Fairfield, N.J.) was applied to the thoracic surface to optimize visibility of the cardiac chambers. Parasternal long-axis and parasternal short-axis two-dimensional views were acquired.
Using the long-axis view, left ventricular (LV) end-systolic and end-diastolic volumes (ESV and EDV), as well as LV ejection fraction (LVEF), were calculated by using frames with the maximal and minimal cross-sectional area and width. The system software utilizes a formula based on a cylindrical-hemiellipsoid model (volume=8*area2÷3÷length). LVEF was calculated using the following formula: (EDV−ESV)/EDV*100. Fractional shortening (FS) was evaluated from the M mode of the parasternal long-axis view at the papillary muscle level on the basis of the percent changes of LV end-diastolic and end-systolic diameters. LV mass was estimated using the following equation at end diastole: LV mass=1.05*(epicardial volume−endocardial volume), where volume is based on the cylindrical-hemiellipsoid model. These evaluations of LV function in the rodent are well validated. Echocardiographic acquisition and analysis were obtained while blinded to the treatment group.

[2] = tested on: congestive heart failure dogs, coronary perfused left ventricular preparation; test: VF organization index analysis, pacing-induced heart failure dogs; format: in vivo; parameters: key to OI Spatial CoV / OI Temporal CoV: coefficient of variance = SD/mean; settings: CHF dogs with PFD
Excerpt: Animal Models: Twenty-four dogs weighing 25-30 Kg were divided into three groups: control (n=11), congestive heart failure (n=7), and congestive heart failure with the antifibrotic drug pirfenidone (n=6). Heart Failure (CHF) was induced in 7 dogs via four weeks of rapid ventricular pacing via a lead placed in the RV and pulse generator set to pace at 240 bpm followed by ablation of the AV node to create complete heart block, as described in Li, et al., Circulation 1999; 100:87-95. Ventricular function was monitored weekly with transthoracic echocardiography for 4 weeks. At 4 weeks, the optical mapping study was performed.
Heart Failure with Pirfenidone (PFD): Heart failure was induced in 6 dogs as described above and PFD was administered as described in Lee et al., Circulation 2006; 114; 1703-12. Oral PFD (800 mg 3 times per day; InterMune, Brisbane, Calif.) was started 2 days before the initiation of pacing and was discontinued >6 half-lives (24 hours) before the optical mapping study.
With an optical mapping system described in Wu et al., J Cardiovasc Electrophysiol 1998; 9:1336-47, optical recordings were then made from 4-cm^2 area on 3 surfaces of the preparation (epicardial, endocardial (including the papillary muscle, and transmural) by a 16×16 photodiode array (C4657 Hamamatsu, Bridgewater, N.J.) that recorded 256 simultaneous optical action potentials. During optical recordings from a preparation, contractility was blocked with 15 mM 2,3-butadione monoxime (BDM; Sigma-Aldrich)11. Plunge electrodes were placed on the recording surface around the field of view for both pacing and monitoring. Two plunge electrodes were dedicated for recording a bipolar signal for monitoring the electrical activity of the preparation. VF was initiated with either extra stimuli or with rapid burst pacing at a cycle length of 50 ms, a pulse width of 9.9 ms, and an output of 9.9 mA. Several 4-s episodes of VF were recorded on each surface in each preparation. Activation movies of the VF were then viewed, and the activation patterns were determined. After termination of VF, signals were obtained during pacing at 250 ms and isochronal maps of activation were constructed to look at conduction. Activation patterns and wave-front direction during VF were determined from raw fluorescence movies (isopotential). […] VF was defined as rapid and irregular activations on the bipolar signal used for monitoring the electrical activity of the preparation.
Signal Processing and Frequency Domain Analysis: The signals obtained from the optical mapping recordings were sampled at 2,000 Hz, and for each signal the dominant frequency (DF) was determined and the organization was calculated as described Everett, et al., IEEE Trans Biomed Eng 2001; 48:969-78. Briefly, a fast Fourier transform (FFT) was calculated on the digitally filtered waveform. The data were detrended and multiplied by a Hamming window. The largest peak of the resulting magnitude spectrum was identified, and the positions of the harmonic peaks were determined on the basis of its position. The areas under the largest peak and three of its harmonic peaks were each calculated over a 1-Hz window. This produced an area under four peaks. The total area of the spectrum was calculated from 2 Hz up to but not including the fifth harmonic peak. The ratio of the power under the harmonic peaks to the total power in this range was calculated, and the resulting number was defined as the organization index (OI). The OI was theorized to represent the organization of AF for that signal at that period in time. To calculate the variance of the DFs, spatial coefficient of variance (SD/mean) of the DFs during a single episode of AF among all recording sites and temporal coefficient of variance of average DFs from among AF episodes for each mapping field within each preparation were calculated. Discrete, stable, high frequency areas were noted. […]

For `Cc1ccc(=O)n(-c2ccccc2)c1` [pirfenidone], the “LV ejection fraction at 1 week” value ([1]; 1 week post-MI, at randomization before treatment) was 54%, the “LV ejection fraction at 5 weeks” value [1] was 45% and the “LV ejection fraction at 5 weeks” value ([1]; listed as PFD) was 36±15%. The “LV ejection fraction, starting value of the decline” value ([1]; baseline echocardiography, before treatment) was 66±5%, the “percent decrease in ejection fraction from week 1 to week 5” value ([1]; treatment period, feed with 1.2% pirfenidone, controls 24.3%, p=0.005) was 8.6% and 8% and the “Max OI” value ([2]; Endocardium) was 0.61 ± 0.05. For the same compound, the “Mean OI” value ([2]; Endocardium) was 0.45 ± 0.05, the “OI Spatial CoV” value ([2]; Endocardium) was 0.16 ± 0.03 and the “OI Temporal CoV” value ([2]; Endocardium) was 0.13 ± 0.01. For the same compound, the “Max OI” value ([2]; Epicardium) was 0.62 ± 0.05, the “Mean OI” value ([2]; Epicardium) was 0.44 ± 0.05 and the “OI Spatial CoV” value ([2]; Epicardium) was 0.17 ± 0.01. The “OI Temporal CoV” value ([2]; Epicardium) was 0.14 ± 0.01, the “Max OI” value ([2]; Transmural) was 0.65 ± 0.06 and the “Mean OI” value ([2]; Transmural) was 0.48 ± 0.05. For the same compound, the “OI Spatial CoV” value ([2]; Transmural) was 0.17 ± 0.03 and the “OI Temporal CoV” value ([2]; Transmural) was 0.13 ± 0.01.
